For experiment [1], the system named is estrogen-responsive reporter gene (ERE-tk109-Luc) in MCF-7 cells. In words: Inhibition of E2-induced transcription, ERE-tk109-Luc reporter gene in MCF-7 cells. Type of experiment: cell-based, human. The settings on record: 100 pM 17β-estradiol (E2), 18-22 hours, read-out: IC50, inhibition of E2-induced transcription in breast cells. The method, then:
Representative compounds were tested for their inhibitory activity of estrogen according to the assay methods described in Hodges-Gallagher, L., Valentine, C. V., El Bader, S. and Kushner, P. J. (2007) “Histone Deacetylase Inhibitors Enhance the Efficacy of Hormonal Therapy Agents on Breast Cancer Cells and Blocks Anti-estrogen-Driven Uterine Cell Proliferation” Breast Cancer Res Treat, November; 105(3):297-309. Specifically, an estrogen-responsive reporter gene (ERE-tk109-Luc) was transiently transfected into MCF-7 cells and treated with anti-estrogens in triplicate in the presence of 100 pM 17β-estradiol (E2) for 18-22 hours. Luciferase activity was normalized to activity of E2 alone and IC50's were calculated using the least squares fit method.
Background: In a reporter assay the amount or activity of a reporter protein is the signal.

Experiment [2] relates to MCF-7 breast cancer cells. The experiment in a line: Inhibition of E2-stimulated proliferation of MCF-7 breast cancer cells. The experiment is classed as cell-based, human. The settings on record: 100 pM E2, hormone-depleted medium, 6-8 days. The method, then:
Proliferation of MCF-7 breast cancer cells was measured using a fluorescent DNA binding dye 6-8 days after treatment in triplicate with representative compounds in the presence of 100 pM E2 in hormone-depleted medium. IC50's were calculated from individual experiments as in Example 25.

A further experiment concerns the target T1, ERα (Homo sapiens, UniProt P03372).
T1 construct: ERα expression was detected in MCF-7 cell lysates treated with 100 nM antiestrogens in serum-free medium for 24 hours; endogenous in cells; host or cells: MCF-7
T1 sequence (P03372 1-595): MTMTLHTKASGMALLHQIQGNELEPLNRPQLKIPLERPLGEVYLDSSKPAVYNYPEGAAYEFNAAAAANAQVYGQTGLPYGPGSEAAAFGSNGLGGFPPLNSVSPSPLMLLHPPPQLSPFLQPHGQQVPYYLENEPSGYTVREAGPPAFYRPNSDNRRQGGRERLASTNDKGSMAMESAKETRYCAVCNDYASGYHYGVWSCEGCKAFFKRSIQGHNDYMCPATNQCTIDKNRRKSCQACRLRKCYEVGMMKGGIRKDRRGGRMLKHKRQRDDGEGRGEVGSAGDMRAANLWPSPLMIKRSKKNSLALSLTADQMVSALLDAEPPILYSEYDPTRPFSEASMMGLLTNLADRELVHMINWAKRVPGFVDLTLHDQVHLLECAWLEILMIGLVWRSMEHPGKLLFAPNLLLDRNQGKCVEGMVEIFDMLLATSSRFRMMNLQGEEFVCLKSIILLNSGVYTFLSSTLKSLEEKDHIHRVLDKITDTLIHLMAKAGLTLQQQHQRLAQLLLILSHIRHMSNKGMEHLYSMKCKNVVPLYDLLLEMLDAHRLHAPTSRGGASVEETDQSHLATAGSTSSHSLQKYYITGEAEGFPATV
In words: ERα expression in MCF-7 cell lysates (immunoblot). The experiment is classed as cell-based. To be noted: MCF-7 cells, 100 nM compound, serum-free medium, 24 hours, immunoblot band intensity. As for the experimental part:
ERα expression was detected in MCF-7 cell lysates treated with 100 nM antiestrogens in serum-free medium for 24 hours and immunoblotted with an antibody specific to ERα.
Band intensity was normalized relative to vehicle for each individual experiment and listed in Table 3 (Relative change ERα levels (% vehicle)).
(In general: In western blotting, separated proteins are transferred to a membrane and probed.)

Experiment [3] deals with AP activity in ECC-1 cells. In words: Alkaline phosphatase (AP) assay in ECC-1 uterine cells, induction of AP activity. Type of experiment: cell-based, human. To be noted: 3 days, normalized to 500 pM E2, maximum activity observed regardless of dose. As for the experimental part: (§1) Method for performing the alkaline phosphatase (AP) assay. ECC-1 cells (American Type Culture Collection, Manassas, Va.) were maintained in RPMI medium plus 10% fetal bovine serum at 37° C. At the beginning of the assay trypsinized cells were resuspended in RPMI medium plus 5% charcoal dextran stripped serum (CDSS, (Hyclone, Logan, Utah)) and plated at a density of 25-50 k cells per well into a 96-well plate for at least 6 hours. Representative compounds were diluted in serum-free medium and added 1:1 to plated cells in replicate wells (2.5% CDSS final). Plates were incubated for 3 days at 37° C. and subsequently frozen at −80° C. to lyse cells after removing the medium. Thawed plates were incubated with a chromogenic substrate of AP, p-nitrophenyl phosphate (Invitrogen, Grand Island, N.Y.), for 40 minutes at 40° C. Absorbances were read at 405 nm using a plate spectrophotometer. AP activity was normalized to 500 pM 17β-estradiol (E2), reported as the maximum activity observed for each individual experiment, regardless of dose.

The subject of experiment [4] is AP activity in ECC-1 cells. The experiment in a line: Alkaline phosphatase (AP) assay in ECC-1 cells co-treated with 500 pM E2. The experiment is classed as cell-based, human. To be noted: 3 days. As for the experimental part: as §1
AP activity was assayed as in Example 28 but cells were co-treated with 500 pM E2.

Where [5] appears, read: Homo sapiens, MCF7, MCF-7 cells.

This note sets out measurements from patent publication US20170362210A1, “ANTI-ESTROGENIC COMPOUNDS” (PFIZER INC., priority 2015, published 2017).

Each structure is given as a SMILES string. Read-outs that look alike come from different tables or passages of the source. Marks after values point to notes of the source that are not given here.

On to `CCCN1CC(Cc2ccc(C3Oc4cc(O)ccc4C(C)=C3c3ccc(O)cc3)cc2)C1` (single isomer, unassigned) [Compound 102, 3-(4-hydroxyphenyl)-4-methyl-2-(4-((1-propylazetidin-3-yl)methyl)phenyl)-2H-chromen-7-ol], for which the half-inhibitory concentration (IC50) – broadly, the point on the concentration scale where inhibition reaches its midpoint – was determined as 2 nM in experiment [1] (MCF-7 cells) and 6 nM in experiment [2] (MCF-7 cells). Further, the “Relative change ERα levels (% vehicle)” value on ERα was found to be 50 % veh. Besides, the “Induction of AP activity in uterine cells (% E2)” value (from here on “Induction of AP activity … (% E2)”) in experiment [3] is 9 % E2. Moreover, the “AP activity (% E2), cells co-treated with 500 pM E2” value (“AP activity (% E2)” below) in experiment [4] was 8 % E2.
Turning to `CCCN1CC(Cc2ccc(C3Oc4cc(O)ccc4C(C)=C3c3ccc(O)cc3)cc2)C1` (single isomer, unassigned) [Compound 103, 3-(4-hydroxyphenyl)-4-methyl-2-(4-((1-propylazetidin-3-yl)methyl)phenyl)-2H-chromen-7-ol], the half-inhibitory concentration (IC50) in experiment [1] (MCF-7 cells) came to 27 nM; in experiment [2] (MCF-7 cells), 59 nM. The “Relative change ERα levels (% vehicle)” value on ERα turned out to be 55 % veh. In experiment [3], the “Induction of AP activity … (% E2)” value amounted to 23 % E2. Besides, the “AP activity (% E2)” value in experiment [4] is given as 36 % E2.
Take `CCCN1CC(Oc2ccc(C3Oc4cc(O)ccc4C(C)=C3c3ccc(O)cc3)cc2)C1` (single isomer, unassigned) [Compound 105, 3-(4-hydroxyphenyl)-4-methyl-2-(4-((1-propylazetidin-3-yl)oxy)phenyl)-2H-chromen-7-ol]: the IC50 in experiment [1] (MCF-7 cells) turned out to be 4 nM; in experiment [2] (MCF-7 cells), 10 nM. Besides, the “Relative change ERα levels (% vehicle)” value on ERα was found to be 39 % veh. In experiment [3], the “Induction of AP activity … (% E2)” value is given as 4 % E2. Besides, the “AP activity (% E2)” value in experiment [4] is reported as 4 % E2.
In the case of `CCCN1CC(Oc2ccc(C3Oc4cc(O)ccc4C(C)=C3c3ccc(O)cc3)cc2)C1` (single isomer, unassigned) [Compound 106, 3-(4-hydroxyphenyl)-4-methyl-2-(4-((1-propylazetidin-3-yl)oxy)phenyl)-2H-chromen-7-ol], the values for the IC50 in experiment [1] (MCF-7 cells) and in experiment [2] (MCF-7 cells) were 54 nM and 114 nM, respectively. Moreover, the “Relative change ERα levels (% vehicle)” value on ERα was 53 % veh. Further, the “Induction of AP activity … (% E2)” value in experiment [3] is on record as 17 % E2. The “AP activity (% E2)” value in experiment [4] is 44 % E2.
On to `CCCN1CC(Oc2ccc(C3Oc4cc(O)ccc4C(C)=C3c3ccc(O)cc3)cc2F)C1` (single isomer, unassigned) [Compound 108, 2-(3-fluoro-4-((1-propylazetidin-3-yl)oxy)phenyl)-3-(4-hydroxyphenyl)-4-methyl-2H-chromen-7-ol], for which the IC50 is 1 nM in experiment [1] (MCF-7 cells) and 9 nM in experiment [2] (MCF-7 cells). Besides, the “Induction of AP activity … (% E2)” value in experiment [3] was determined as 3 % E2. The “AP activity (% E2)” value in experiment [4] is recorded as 4 % E2.
For `CCCN1CC(Oc2ccc(C3Oc4cc(O)ccc4C(C)=C3c3ccc(O)cc3)cc2F)C1` (single isomer, unassigned) [Compound 109, 2-(3-fluoro-4-((1-propylazetidin-3-yl)oxy)phenyl)-3-(4-hydroxyphenyl)-4-methyl-2H-chromen-7-ol], the half-inhibitory concentration (IC50) in experiment [1] (MCF-7 cells) stood at 109 nM; in experiment [2] (MCF-7 cells), 40 nM. In addition, in experiment [3], the “Induction of AP activity … (% E2)” value stood at 18 % E2. Also, the “AP activity (% E2)” value in experiment [4] was 42 % E2.
In the case of `CC1=C(c2ccc(O)cc2)C(c2ccc(OC3CN(CCC(F)(F)F)C3)cc2)Oc2cc(O)ccc21` (single isomer, unassigned) [Compound 110, 3-(4-hydroxyphenyl)-4-methyl-2-(4-((1-(3,3,3-trifluoropropyl)azetidin-3-yl)oxy)phenyl)-2H-chromen-7-ol], the IC50 is 14 nM in experiment [1] (MCF-7 cells) and 216 nM in experiment [2] (setting [5]). Moreover, the “Relative change ERα levels (% vehicle)” value at ERα stood at 104 % veh. Moreover, the “Induction of AP activity … (% E2)” value in experiment [3] turned out to be 35 % E2. Besides, the “AP activity (% E2)” value in experiment [4] was determined as 36 % E2.
Regarding `CC1=C(c2ccc(O)cc2)C(c2ccc(OC3CN(CCC(F)(F)F)C3)cc2)Oc2cc(O)ccc21` (single isomer, unassigned) [Compound 111, 3-(4-hydroxyphenyl)-4-methyl-2-(4-((1-(3,3,3-trifluoropropyl)azetidin-3-yl)oxy)phenyl)-2H-chromen-7-ol], the IC50 was 165 nM in experiment [1] (MCF-7 cells) and greater than 300 nM in experiment [2] (MCF-7 cells). In addition, the “Relative change ERα levels (% vehicle)” value at ERα is on record as 82 % veh. Moreover, the “Induction of AP activity … (% E2)” value in experiment [3] is 32 % E2. The “AP activity (% E2)” value in experiment [4] is 61 % E2.
For `CCCN1CC(Cc2ccc(C3Oc4cc(O)ccc4C(C)=C3c3ccc(O)cc3)cc2F)C1` (single isomer, unassigned) [Compound 112, 2-(3-fluoro-4-((1-propylazetidin-3-yl)methyl)phenyl)-3-(4-hydroxyphenyl)-4-methyl-2H-chromen-7-ol], the IC50 in experiment [1] (MCF-7 cells) came out at 2 nM; in experiment [2] (MCF-7 cells), 7 nM. Also, at ERα, the “Relative change ERα levels (% vehicle)” value is 35 % veh. The “Induction of AP activity … (% E2)” value in experiment [3] is given as 5* % E2. Also, the “AP activity (% E2)” value in experiment [4] turned out to be 4 % E2.
For the compound `CCCN1CC(Oc2ccc(C3Oc4cc(O)ccc4C(C)=C3c3ccc(O)cc3)cc2F)C1` (centres unmarked) [Compound 107, 2-(3-fluoro-4-((1-propylazetidin-3-yl)oxy)phenyl)-3-(4-hydroxyphenyl)-4-methyl-2H-chromen-7-ol], the IC50 is 5 nM in experiment [1] (setting [5]) and 13 nM in experiment [2] (setting [5]). Besides, the “Induction of AP activity … (% E2)” value in experiment [3] is listed as 3 % E2. Besides, the “AP activity (% E2)” value in experiment [4] is reported as 4 % E2.
Consider `CCCN1CC(Oc2ccc(C3Oc4cc(O)ccc4C(C)=C3c3ccccc3)cc2)C1` (centres unmarked) [Compound 114, 4-methyl-3-phenyl-2-(4-((1-propylazetidin-3-yl)oxy)phenyl)-2H-chromen-7-ol], for which the half-maximal inhibitory concentration (IC50) was 5 nM in experiment [1] (setting [5]) and 14 nM in experiment [2] (setting [5]). Moreover, the “Induction of AP activity … (% E2)” value in experiment [3] came out at 15 % E2. In experiment [4], the “AP activity (% E2)” value stood at 23 % E2.
For the compound `CCCN1CC(Oc2ccc(C3Oc4cc(O)ccc4C(C)=C3c3ccc(F)cc3)cc2)C1` (centres unmarked) [Compound 115, 3-(4-fluorophenyl)-4-methyl-2-(4-((1-propylazetidin-3-yl)oxy)phenyl)-2H-chromen-7-ol], the IC50 was 10 nM in experiment [1] (setting [5]) and 15 nM in experiment [2] (setting [5]). The “Induction of AP activity … (% E2)” value in experiment [3] came to 20 % E2. The “AP activity (% E2)” value in experiment [4] came to 42 % E2.
On the same counts, the results for `CCCN1CC(Oc2ccc(C3Oc4cc(O)ccc4C(C)=C3c3ccc(F)cc3Cl)cc2)C1` (centres unmarked) [Compound 116, 3-(2-chloro-4-fluorophenyl)-4-methyl-2-(4-((1-propylazetidin-3-yl)oxy)phenyl)-2H-chromen-7-ol] are 5 nM, 5 nM, 9 % E2 and 24 % E2.
